One data set concerns PC3 cells. As to the kind of experiment: PC3 cell proliferation (MTT). The format is cell-based. The arrangement: key to Cell proliferation: active: Active: able to reduce proliferation to an extent greater than 50 %; inactive: able to reduce proliferation to an extent less than 50 %. The note with it: PC3 cells, 10 μM of each prodrug. How it is done:
The biological activity of each prodrug was tested by analyzing their ability to decrease PC3 proliferation as a rapid test to evaluate the PI3Ks inhibitory activity after hydrolysis in a cell‐based assay. […] The choice of using such a cut‐off was due to the intent to identify rapidly which prodrug could be hydrolyzed in the assay to release the active compound. As expected, a good correlation between rate of hydrolysis and cellular activity was observed, and esters 64–68 and 70–73 were determined to be good candidates for topical use. We decided to focus our attention on ester 64, as its half‐life was a good compromise for a prodrug. The EC50 value of this ester was then evaluated on PC3 cells, and a value of (2.3±0.8) μM was obtained.
Cell proliferation: PC3 cell proliferation was measured with a 3‐(4,5‐dimethyl thiazol‐2‐yl)‐2,5‐diphenyltetrazolium bromide (MTT)‐based colorimetric assay (#11 465 007 001 Roche Diagnostic GmbH, Germany). PC3 cells were seeded in a 96‐well plate at a concentration of 10^4 cells mL^−1. PC3 cells were treated for 72 h with increasing concentrations of 64, and MTT was added. After ON solubilization of the MTT metabolite, formazan, the absorbance (λ=550–600 nm absorbance, with a reference wavelength of 650 nm) of each well was read in a multi‐well reader (Glomax multi detection system, Promega, model number 9301‐010). The percentage of proliferating cells was calculated by relating each absolute value to the control intended as PC3 cells treated with DMSO alone. An IC50 value was then derived by plotting all data on a dose–response curve (Graph Pad software) by using nonlinear regression fit (equation [log agonist] versus response).

Data set [1] is described as follows: metabolic stability in rat liver microsomes (RLM). The format is in vitro ADME. The note with it: RLM, 50 μM substrate, with NADPH; for Residual microsomal substrate (t=60 min): LC–UV. How it is done: (§1) Twelve esters were prepared (see the Experimental Section for their synthesis and the Supporting Information for chromatographic methods) and evaluated in terms of metabolic stability. For this task, a combined approach based on microsomal and plasmatic stability assays was exploited considering the relevance of the plasmatic and hepatic tissues in esterase activity. Microsomal stability of the selected esters was evaluated by monitoring the disappearance of the substrate incubated in rat liver microsomes (RLM) at 50 μM concentration, in the presence of NADPH. In Table 4, the percentage of the remaining substrate, after incubation (t=60 min), with respect to the initial amount is reported. Overall, the compounds underwent a relevant metabolic transformation, and the substrate depletion ranged from 0 (for 76) to 100 % (for 70). This is mainly due to hydrolysis of the ester function, whereas the metabolites arising from the oxidation catalyzed by the NADPH‐dependent monooxygenase system were negligible from a quantitative point of view. Indeed, the main metabolite formed during the incubation of the esters was corresponding carboxyl derivative 37. […] Moreover, whereas CH2‐pyridin‐4‐yl ester 70 was completely metabolized, corresponding benzyl derivative 65 and piperonyl derivative 72 were more hydrolytically stable, and their residual substrates were 53 and 83 %, respectively. The hydrolytic stability of the selected esters was also evaluated by monitoring the depletion of the substrate incubated at a 50 μM concentration in mouse plasma over a period of 30 min. As expected, the plasmatic metabolic fate of the esters was characterized by the formation of 37 as the only metabolite (see Figure S4). The rate constant k [min^−1], derived for the substrate peak area versus time curve (single‐exponential decay equation—GraphPad Prism software, Inc., San Diego, CA (USA); see Figure S5) was used to calculate the in vitro half‐life t 1/2 [min], and the values are reported in Table 4.
Metabolic stability of PI3K inhibitors in RLM fraction
The standard incubation mixture (500 µL final volume), in 1.5 mL Eppendorf tubes, was carried out in a 50 mM TRIS-HCl buffer (pH 7.4) containing 3.3 mM MgCl2, 1.3 mM NADPNa2, 3.3 mM glucose 6-phosphate, 0.4 Units/mL glucose 6-phosphate dehydrogenase (NADPH regenerating system), acetonitrile as cosolvent (1% of final volume) and 50 µM of substrate. After pre-equilibration of the mixture, an appropriate volume of rat microsomal suspension was added to give a final protein concentration of 1 mg/mL. The mixture was shaken for 1 hour at 37°C and the reaction was quenched by diluting the samples with 500 µL of ice-cold acetonitrile. The samples were then centrifuged at 13,000 rpm for 10 min, and the supernatant was directly injected onto the HPLC column for analysis. Control incubations were performed without microsomes. […]
(§2) A Shimadzu HPLC system (Shimadzu, Kyoto, Japan), consisting of two LC-10AD Vp module pumps, an SLC-10A Vp system controller, an SIL-10AD Vp autosampler, and a DGU-14-A on-line degasser was used for the analysis. All the chromatographic separations were performed on a Phenomenex Luna C18 5µm (150 x 4.6 mm i.d.) (Phenomenex srl, Castel Bolognese, Italy) as a stationary phase protected by a Luna C18 SecurityGuard (Phenomenex srl). The SPD-M10Avp photodiode array detector was used to detect the analyte at 254 nm. LC Solution 1.24 software was used to process the chromatograms. Aliquots (20 µL) of supernatants obtained from incubations were injected onto the HPLC system and eluted with a mobile phase (flow rate: 1 mL/min) consisting of solvent A- 0.5% aqueous formic acid solution and solvent B- acetonitrile/methanol 80:20.
(§3) The eluants were filtered through a 0.45-µm pore size polyvinylidene difluoride membrane […]
(§4) The following gradients programs were used: […]

Data set [2] in a line: stability in mouse plasma. It is filed as in vitro ADME. The note with it: 50 μM substrate; for half-life at 50 µM: mouse, mouse plasma, 30 min incubation, 37 °C, read-out: Mouse plasma t 1/2. How it is done:
as §1, with “4. […]” for “4.”
Stability of PI3K inhibitors in mouse plasma
An aliquot of 460 µL of blank plasma spiked with substrate (50 µM, final concentration, DMSO 5%) was incubated at 37 °C for 30 minutes. Aliquots (70 µL) of the incubation took at 0-2-5-10-20, and 30 minutes were diluted with 140 µL of acetonitrile, homogenized, and centrifuged at 13,000 rpm for five minutes. Supernatants (20 µL) were injected onto HPLC.
as §2, §3, §4

The values below come from PMC5697638, “Identification of a Potent Phosphoinositide 3‐Kinase Pan Inhibitor Displaying a Strategic Carboxylic Acid Group and Development of Its Prodrugs” (Chemmedchem, 2017).

Structures are written as SMILES.

With `O=C(OCc1ccccc1)c1cccc(Cn2cc(-c3cccc4c(=O)cc(N5CCOCC5)[nH]c34)nn2)c1` [Compound 65, Benzyl 3‐{[4‐(2‐morpholino‐4‐oxo‐1,4‐dihydroquinolin‐8‐yl)‐1H‐1,2,3‐triazol‐1‐yl]methyl}benzoate], the Cell proliferation entry in the data set on PC3 cells is reported as “active”. In addition, the “Residual microsomal substrate (t=60 min)” value in data set [1] is given as 53%. The half-life at 50 µM in data set [2] is below 1 min.
The like results for `CC(C)OC(=O)c1cccc(Cn2cc(-c3cccc4c(=O)cc(N5CCOCC5)[nH]c34)nn2)c1` [Compound 66, Isopropyl 3‐{[4‐(2‐morpholino‐4‐oxo‐1,4‐dihydroquinolin‐8‐yl)‐1H‐1,2,3‐triazol‐1‐yl]methyl}benzoate] were, in that order, “active”, 16% and 15.1 min.
With `CCOC(=O)c1cccc(Cn2cc(-c3cccc4c(=O)cc(N5CCOCC5)[nH]c34)nn2)c1` [Compound 67, Ethyl 3‐{[4‐(2‐morpholino‐4‐oxo‐1,4‐dihydroquinolin‐8‐yl)‐1H‐1,2,3‐triazol‐1‐yl]methyl}benzoate], the Cell proliferation result with PC3 cells is “active”. Also, the “Residual microsomal substrate (t=60 min)” value in data set [1] is 24%.
In the case of `CCCCOC(=O)c1cccc(Cn2cc(-c3cccc4c(=O)cc(N5CCOCC5)[nH]c34)nn2)c1` [Compound 68, Butyl 3‐{[4‐(2‐morpholino‐4‐oxo‐1,4‐dihydroquinolin‐8‐yl)‐1H‐1,2,3‐triazol‐1‐yl]methyl}benzoate], the Cell proliferation result with PC3 cells is recorded as “active”. Besides, in data set [1], the “Residual microsomal substrate (t=60 min)” value is listed as 53%. Besides, the half-life at 50 µM in data set [2] was below 1 min.
Regarding `CC(C)(C)OC(=O)c1cccc(Cn2cc(-c3cccc4c(=O)cc(N5CCOCC5)[nH]c34)nn2)c1` [Compound 69, tert ‐Butyl 3‐{[4‐(2‐morpholino‐4‐oxo‐1,4‐dihydroquinolin‐8‐yl)‐1H‐1,2,3‐triazol‐1‐yl]methyl}benzoate], the Cell proliferation result in the data set with PC3 cells is “inactive”. For the same compound, the “Residual microsomal substrate (t=60 min)” value in data set [1] worked out at 79%. Further, the “hydrolysis by mouse plasma hydrolases” value in data set [2] (30 min) is on record as “inert to the mouse plasma hydrolases”.
Turning to `O=C(OCc1ccncc1)c1cccc(Cn2cc(-c3cccc4c(=O)cc(N5CCOCC5)[nH]c34)nn2)c1` [Compound 70, Pyridin‐4‐ylmethyl 3‐{[4‐(2‐morpholino‐4‐oxo‐1,4‐dihydroquinolin‐8‐yl)‐1H‐1,2,3‐triazol‐1‐yl]methyl}benzoate], in the data set with PC3 cells, the Cell proliferation entry was “active”. The compound also had a substrate depletion in data set [1] (60 min) of 100%. For the same compound, in data set [1], the “Residual microsomal substrate (t=60 min)” value is given as 0%. Besides, the half-life at 50 µM in data set [2] is below 1 min.
Take `O=C(OCCN1CCOCC1)c1cccc(Cn2cc(-c3cccc4c(=O)cc(N5CCOCC5)[nH]c34)nn2)c1` [Compound 71, 2‐Morpholinoethyl 3‐{[4‐(2‐morpholino‐4‐oxo‐1,4‐dihydroquinolin‐8‐yl)‐1H‐1,2,3‐triazol‐1‐yl]methyl}benzoate]: the Cell proliferation result in the data set with PC3 cells is listed as “active”. Further, in data set [1], the “Residual microsomal substrate (t=60 min)” value worked out at 18%. In addition, the half-life at 50 µM in data set [2] is 2.5 min.
Take `O=C(OCc1ccc2c(c1)OCO2)c1cccc(Cn2cc(-c3cccc4c(=O)cc(N5CCOCC5)[nH]c34)nn2)c1` [Compound 72, Benzo[d][1,3]dioxol‐5‐yl methyl 3‐{[4‐(2‐morpholino‐4‐oxo‐1,4‐dihydroquinolin‐8‐yl)‐1H‐1,2,3‐triazol‐1‐yl]methyl}benzoate]: the Cell proliferation result in the data set with PC3 cells is “active”. In addition, the “Residual microsomal substrate (t=60 min)” value in data set [1] turned out to be 83%. Moreover, the half-life at 50 µM in data set [2] is below 1 min.
As for `CC(C)CCOC(=O)c1cccc(Cn2cc(-c3cccc4c(=O)cc(N5CCOCC5)[nH]c34)nn2)c1` [Compound 73, Isopentyl 3‐{[4‐(2‐morpholino‐4‐oxo‐1,4‐dihydroquinolin‐8‐yl)‐1H‐1,2,3‐triazol‐1‐yl]methyl}benzoate], in the data set on PC3 cells, the Cell proliferation result was “active”. Also, the “Residual microsomal substrate (t=60 min)” value in data set [1] is 39%. Moreover, in data set [2], the half-life at 50 µM was below 1 min.
Turning to `CCCC(C)OC(=O)c1cccc(Cn2cc(-c3cccc4c(=O)cc(N5CCOCC5)[nH]c34)nn2)c1` (stereo not drawn) [Compound 74, Pentan‐2‐yl 3‐{[4‐(2‐morpholino‐4‐oxo‐1,4‐dihydroquinolin‐8‐yl)‐1H‐1,2,3‐triazol‐1‐yl]methyl}benzoate], in the data set on PC3 cells, the Cell proliferation result was “inactive”. Moreover, the “Residual microsomal substrate (t=60 min)” value in data set [1] was determined as 60%. In data set [2], the half-life at 50 µM came out at 4.2 min.
Taken in the same sequence, the figures for `CCCCCCCCCCCOC(=O)c1cccc(Cn2cc(-c3cccc4c(=O)cc(N5CCOCC5)[nH]c34)nn2)c1` [Compound 75, Undecyl 3‐{[4‐(2‐morpholino‐4‐oxo‐1,4‐dihydroquinolin‐8‐yl)‐1H‐1,2,3‐triazol‐1‐yl]methyl}benzoate] were “inactive”, 80% and 4.4 min.
